How the values were obtained:
cantharidin mouse ear = experiment: Mouse Cantharidin Screen (topical anti-inflammatory activity); format: in vivo; details: applied with cantharidin, 24 h
Description: Compounds were tested for topical anti-flammatory activity in a cantharidin mouse ear screen, modified from Swingle et al [Swingle, K. F., Reiter, M. J. and Schwartzmiller, D. H., Arch. Int. Pharmacodyn. (1981), 254, 168-176].
25 μg cantharidin (in 10 μl THF/MeOH) was applied to both ears. Compound, in the same solvent, was applied at the same time, to the left ear only. Ears were weighed 24 h after cantharidin application. Percentage inhibition of the acute inflammatory swelling refers to the increase in weight of left ears (catharidin plus compound) compared with solvent-treated negative controls, as a proportion of the increase in weight of right ears (cantharidin alone) over similar controls.

[1] = system: mouse sensitised to oxazolone; experiment: Mouse Oxazolone Screen (topical anti-inflammatory activity); format: in vivo; details: 1 h before oxazolone challenge, ears weighed 24 h later
Description: Compounds were tested for topical anti-inflammatory activity in a screen using the mouse sensitised to oxazolone, by a method modified from that of Dietrich and Hess [Dietrich, F. M., and Hess, R., Int. Arch. Allergy, (1970), 38, 246-259].
Mice were sensitised with oxazolone (2 mg in 20 μl ethanol) on a shaved area of the abdomen. Five days later, the animals received 10 μl THF/MeOH (1:1 v/v) on the right ear, and the test compound in the same solvent on the left ear. One hour later, the animals were challenged with 100 μg oxazolone in 10 μl acetone on each ear. Ear weights were measured 24 h later. Percentage inhibition of the inflammatory swelling refers to the increase in weight of left ears (oxazolone plus compound) compared with solvent-treated negative controls, as a proportion of the increase in weight of right ears (oxazolone alone) over similar controls.

5-Lipoxygenase = experiment: RBL-1 5-Lipoxygenase Screen; format: biochemical; details: 20 μM; 10,000 g supernatant from RBL-1 cells, 29° C.
Description: 5-Lipoxygenase enzyme was prepared as a 10,000 g supernatant from RBL-1 cells by the method of Jakschik [Jakschik, B. A., Sun, F. F., Lee, L. M. and Steinhoff, M. M., 1980, Biochem. Biophys. Res. Comm. 95, 103]. The 10,000 g supernatant was diluted with homogenization buffer to the equivalent of 1.5-2.5×10^7 cells ml^-1 and made 2 mM with respect to CaCl2. Aliquots of 0.5 ml were then dispensed into tubes, and incubated at 29° C. with 5 γl ethanol or compound in ethanol at the desired concentration for 2 min. Then [1-^14 C] arachidonic acid was added in buffer to give a final concentration of 6.3. μm and 0.2 μCi per incubation, and the reaction continued at 29° C. for 2 min. The reaction was terminated by adding 1 ml of acetone and cooling on ice. 0.5 ml of ice cold saline and 10 μl of 2N formic acid were added, and the mixture was extracted with 2×2 ml of chloroform. The extract was stored under N2 at -20° C. until analysis by chromatography. Activity was measured as the percentage of total radioactivity found in 5-HETE and 5,12-diHETE, and inhibition calculated as the decrease in formation of the sum of these two species in compound-treated incubates relative to control incubates.

| Structure (SMILES) | % Inhibition (acute inflammatory swelling, ear weight) (cantharidin mouse ear; 500 μg/ear) | % Inhibition (inflammatory swelling, ear weight) ([1]; 200 μg/ear) | % Inhibition (acute inflammatory swelling, ear weight) (cantharidin mouse ear; 200 μg/ear) | inhibition (decrease in formation of 5-HETE and 5,12-diHETE) (5-Lipoxygenase) | % Inhibition (inflammatory swelling, ear weight) ([1]; 500 μg/ear) |
| --- | --- | --- | --- | --- | --- |
| C=CCNc1ccnc2cn[nH]c12 [Example 7, 7-Allylamino-1H-pyrazolo[4,3-b]pyridine] | 83% | – | – | – | – |
| Cc1cc(NCCO)c2[nH]ncc2n1 [Example 3, 7-[2-Hydroxyethylamino]-5-methyl-1H-pyrazolo[4,3-b]pyridine] | – | 65% | 76% | – | – |
| COCCNc1cc(C)nc2c[nH]nc12 [Example 4] | – | 52% | 57% | – | – |
| C=CCNc1cc(C)nc2cn(C)nc12 [Example 5, 7-Allylamino-2,5-dimethyl-pyrazolo[4,3-b]pyridine] | – | 71% | 68% | – | – |
| C=CCNc1cc(C)nc2cn[nH]c12 [Example 1, 7-Allylamino-5-methyl-1H-pyrazolo[4,3-b]pyridine] | – | 62% | 88% | 39% | – |
| Cc1cc(NCCCO)c2[nH]ncc2n1 [Example 2, 7-[3-hydroxypropylamino]-5-methyl-1H-pyrazolo[4,3-b]pyridine] | – | – | 82% | – | 82% |
| Cc1cc(NCCCN(C)C)c2[nH]ncc2n1 [Example 6, 7-[3-Dimethylaminopropylamino]-5-methyl-1H-pyrazolo[4,3-b]pyridine] | 97% | – | – | – | – |

— patent US4670432A, “Pyrazolopyridine derivatives useful in treating inflammation and allergic conditions” (Beecham Group p.l.c., priority 1984, dated 1987)
